Measured values published in publication PMC8318587, “Structure-guided microbial targeting of antistaphylococcal prodrugs” (eLife, 2021).

Experiments:
human sera = test: Esterase substrate specificity, fluorogenic SAR library kinetics in serum; type: in vitro ADME
Experimental: (§1) Kinetic measurements were performed according to [White et al., 2018] with minor variation. Lyophilized human and mouse sera were resuspended according to manufacturer instructions in highly pure, filtered water at protein concentrations of 85 mg/mL and 70 mg/mL, respectively. One milliliter of resuspended serum was added to a 24 mL mastermix for a final concentration of 31.25 mM Tris pH 7.5, 312.5 mM NaCl, 1.25 mM MgCl2, 12.5% glycerol, and 3.4 mg/mL or 2.8 mg/mL protein for human and mouse serum, respectively. For purified proteins, 5 mL of a 75 µg/mL stock was added to yield a 20 mL mastermix containing 31.25 mM Tris pH 7.5, 312.5 mM NaCl, 1.25 mM MgCl2, 12.5% glycerol, and 18.75 µg/mL protein. Mastermix was stored on ice when not in use. Twenty microliters of mastermix was transferred to a black, 96-well half area microplate (Corning, CLS3993) and prewarmed at 37°C. Fluorogenic substrates were prepared as 10 mM stock solutions in 100% DMSO and were diluted in water to a starting concentration of 500 µM. Enzyme catalyzed substrate hydrolysis was initiated by addition of 5 µL substrate dilution in technical duplicate to the prewarmed serum or protein solution. Final assay concentrations were as follows: 25 mM Tris pH 7.5, 250 mM NaCl, 1 mM MgCl2, 10% glycerol, and protein at a concentration of 2.72 mg/mL (human serum), 2.24 mg/mL (mouse serum), or 15 µg/mL (FrmB, GloB). The resulting change in fluorescence (λex = 485 nm, λem = 520 nm) was followed for 15 min at 37°C, collecting data every 30 s on a FLUOstar Omega microplate reader (BMG Labtech). Fluorescence measurements were converted to molar concentrations using a fluorescein standard curve (2.5 nmol–0.6 pmol). The initial rates of reaction were measured three independent times with two technical replicates per measurement and fit to a line using GraphPad Prism (GraphPad Software, La Jolla, CA). Initial rates of reaction were plotted versus the concentration of substrate and fit to a standard Michaelis–Menten equation (v = Vmax[S]/(Km + [S])), yielding estimates of Vmax and Km. Values for kcat and kcat/Km were calculated based on amount of enzyme added when purified enzymes were used.

mouse sera = test: as above; type: in vitro ADME
Experimental: as §1

SaFrmB = target: T1, SaFrmB (Staphylococcus aureus, UniProt A0A0H3KFB7); test: Esterase substrate specificity, fluorogenic SAR library kinetics; type: biochemical; conditions: for kcat/kuncat: SaFrmB; for Km: SaFrmB 15 µg/mL, pH 7.5, 37°C
T1 construct: made in house; host or cells: E. coli BL21 (DE3)
T1 sequence (A0A0H3KFB7 1-253): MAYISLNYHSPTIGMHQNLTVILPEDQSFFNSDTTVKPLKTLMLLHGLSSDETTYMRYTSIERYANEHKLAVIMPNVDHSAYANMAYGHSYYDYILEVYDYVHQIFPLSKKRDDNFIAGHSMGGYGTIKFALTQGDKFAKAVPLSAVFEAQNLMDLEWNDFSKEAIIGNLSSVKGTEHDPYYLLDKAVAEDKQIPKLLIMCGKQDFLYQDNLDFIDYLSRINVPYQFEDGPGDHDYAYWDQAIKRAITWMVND
Experimental: as §1

SaGloB = target: T2, SaGloB (Staphylococcus aureus, UniProt P0DY75); test: as above; type: biochemical; conditions: SaGloB; for kcat/kuncat: normalised to uncatalysed hydrolysis rate; for Km: fluorogenic ester substrate
T2 sequence (P0DY75 1-207): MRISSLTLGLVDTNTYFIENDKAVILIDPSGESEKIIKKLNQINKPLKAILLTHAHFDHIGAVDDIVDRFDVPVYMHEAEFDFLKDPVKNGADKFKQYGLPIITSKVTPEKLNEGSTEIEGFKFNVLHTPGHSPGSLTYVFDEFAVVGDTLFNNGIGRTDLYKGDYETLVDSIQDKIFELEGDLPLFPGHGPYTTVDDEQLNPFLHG
Experimental: as §1

CCCC(=O)OCOc1ccc2c(c1)Oc1cc(OCOC(=O)CCC)ccc1C21OC(=O)c2ccccc21 [1C]
Km (human sera): 36.2 µM | Vmax (human sera): 1.06 pmol*min-1*mg sera-1 | Km (mouse sera): > 50 µM | kcat/kuncat (SaFrmB): 7.99 103 | kcat/kuncat (SaGloB): 21.2 103

CSCC(=O)OCOc1ccc2c(c1)Oc1cc(OCOC(=O)CSC)ccc1C21OC(=O)c2ccccc21 [1S]
Km (human sera): 71.8 µM | Vmax (human sera): 30.5 pmol*min-1*mg sera-1 | Km (mouse sera): > 50 µM | Km (SaFrmB): > 50 µM | kcat/kuncat (SaGloB): 11.4 103

CCCCC(=O)OCOc1ccc2c(c1)Oc1cc(OCOC(=O)CCCC)ccc1C21OC(=O)c2ccccc21 [2C]
Km (human sera): 71.5 µM | Vmax (human sera): 0.356 pmol*min-1*mg sera-1 | Km (mouse sera): > 50 µM | kcat/kuncat (SaFrmB): 4.74 103 | kcat/kuncat (SaGloB): 17.2 103

CCOCC(=O)OCOc1ccc2c(c1)Oc1cc(OCOC(=O)COCC)ccc1C21OC(=O)c2ccccc21 [2O]
Km (human sera): 40.4 µM | Vmax (human sera): 43.8 pmol*min-1*mg sera-1 | Km (mouse sera): > 50 µM | kcat/kuncat (SaFrmB): 1.08 103 | kcat/kuncat (SaGloB): 19.4 103

CCSCC(=O)OCOc1ccc2c(c1)Oc1cc(OCOC(=O)CSCC)ccc1C21OC(=O)c2ccccc21 [2S]
Km (human sera): > 50 µM | Km (mouse sera): > 50 µM | Km (SaFrmB): > 50 µM | Km (SaGloB): > 50 µM

CCCOCC(=O)OCOc1ccc2c(c1)Oc1cc(OCOC(=O)COCCC)ccc1C21OC(=O)c2ccccc21 [3O]
Km (human sera): 22.2 µM | Vmax (human sera): 11.7 pmol*min-1*mg sera-1 | Km (mouse sera): > 50 µM | kcat/kuncat (SaFrmB): 0.911 103 | kcat/kuncat (SaGloB): 4.91 103

CCCSCC(=O)OCOc1ccc2c(c1)Oc1cc(OCOC(=O)CSCCC)ccc1C21OC(=O)c2ccccc21 [3S]
Km (human sera): 74.3 µM | Vmax (human sera): 8.80 pmol*min-1*mg sera-1 | Km (mouse sera): > 50 µM | Km (SaFrmB): > 50 µM | Km (SaGloB): > 50 µM

COCCC(=O)OCOc1ccc2c(c1)Oc1cc(OCOC(=O)CCOC)ccc1C21OC(=O)c2ccccc21 [4O]
Km (human sera): 44.5 µM | Vmax (human sera): 5.88 pmol*min-1*mg sera-1 | Km (mouse sera): > 50 µM | kcat/kuncat (SaFrmB): 1.40 103 | kcat/kuncat (SaGloB): 8.42 103

CSCCC(=O)OCOc1ccc2c(c1)Oc1cc(OCOC(=O)CCSC)ccc1C21OC(=O)c2ccccc21 [4S]
Km (human sera): 27.9 µM | Vmax (human sera): 3.81 pmol*min-1*mg sera-1 | Km (mouse sera): > 50 µM | kcat/kuncat (SaFrmB): 1.40 103 | Km (SaGloB): > 50 µM

CCSCCC(=O)OCOc1ccc2c(c1)Oc1cc(OCOC(=O)CCSCC)ccc1C21OC(=O)c2ccccc21 [5S]
Km (human sera): 31 µM | Vmax (human sera): 0.690 pmol*min-1*mg sera-1 | Km (mouse sera): > 50 µM | kcat/kuncat (SaFrmB): 0.910 103 | kcat/kuncat (SaGloB): 4.35 103

CC(C)CCC(=O)OCOc1ccc2c(c1)Oc1cc(OCOC(=O)CCC(C)C)ccc1C21OC(=O)c2ccccc21 [6C]
Km (human sera): > 50 µM | Km (mouse sera): 53.5 µM | Vmax (mouse sera): 17.6 pmol*min-1*mg sera-1 | Km (SaFrmB): > 50 µM | kcat/kuncat (SaGloB): 12.7 103

CC(C)OCC(=O)OCOc1ccc2c(c1)Oc1cc(OCOC(=O)COC(C)C)ccc1C21OC(=O)c2ccccc21 [6O]
Km (human sera): 54.6 µM | Vmax (human sera): 11.7 pmol*min-1*mg sera-1 | Km (mouse sera): 11.5 µM | Vmax (mouse sera): 437 pmol*min-1*mg sera-1 | kcat/kuncat (SaFrmB): 1.49 103 | kcat/kuncat (SaGloB): 5.76 103

CC(C)SCC(=O)OCOc1ccc2c(c1)Oc1cc(OCOC(=O)CSC(C)C)ccc1C21OC(=O)c2ccccc21 [6S]
Km (human sera): > 50 µM | Km (mouse sera): > 50 µM | kcat/kuncat (SaFrmB): 2.44 103 | kcat/kuncat (SaGloB): 12.9 103

CCC(C)C(=O)OCOc1ccc2c(c1)Oc1cc(OCOC(=O)C(C)CC)ccc1C21OC(=O)c2ccccc21 (stereo not drawn) [7C]
Km (human sera): 64.2 µM | Vmax (human sera): 0.441 pmol*min-1*mg sera-1 | Km (mouse sera): > 50 µM | Km (SaFrmB): > 50 µM | Km (SaGloB): > 50 µM

COC(C)C(=O)OCOc1ccc2c(c1)Oc1cc(OCOC(=O)C(C)OC)ccc1C21OC(=O)c2ccccc21 (stereo not drawn) [7O]
Km (human sera): 30.3 µM | Vmax (human sera): 5.73 pmol*min-1*mg sera-1 | Km (mouse sera): 25.9 µM | Vmax (mouse sera): 929 pmol*min-1*mg sera-1 | kcat/kuncat (SaFrmB): 3.31 103 | kcat/kuncat (SaGloB): 23.6 103

CSC(C)C(=O)OCOc1ccc2c(c1)Oc1cc(OCOC(=O)C(C)SC)ccc1C21OC(=O)c2ccccc21 (stereo not drawn) [7S]
Km (human sera): 30.2 µM | Vmax (human sera): 1.60 pmol*min-1*mg sera-1 | Km (mouse sera): > 50 µM | Km (SaFrmB): > 50 µM | kcat/kuncat (SaGloB): 7.86 103

CCCC(C)C(=O)OCOc1ccc2c(c1)Oc1cc(OCOC(=O)C(C)CCC)ccc1C21OC(=O)c2ccccc21 (stereo not drawn) [8C]
Km (human sera): > 50 µM | Km (mouse sera): > 50 µM | Km (SaFrmB): > 50 µM | kcat/kuncat (SaGloB): 79.1 103

CCOC(C)C(=O)OCOc1ccc2c(c1)Oc1cc(OCOC(=O)C(C)OCC)ccc1C21OC(=O)c2ccccc21 (stereo not drawn) [8O]
Km (human sera): 27.7 µM | Vmax (human sera): 3.93 pmol*min-1*mg sera-1 | Km (mouse sera): > 50 µM | kcat/kuncat (SaFrmB): 1.38 103 | kcat/kuncat (SaGloB): 6.80 103

CCSC(C)C(=O)OCOc1ccc2c(c1)Oc1cc(OCOC(=O)C(C)SCC)ccc1C21OC(=O)c2ccccc21 (stereo not drawn) [8S]
Km (human sera): > 50 µM | Km (mouse sera): > 50 µM | Km (SaFrmB): > 50 µM | kcat/kuncat (SaGloB): 9.01 103

CCC(OC)C(=O)OCOc1ccc2c(c1)Oc1cc(OCOC(=O)C(CC)OC)ccc1C21OC(=O)c2ccccc21 (stereo not drawn) [9O]
Km (human sera): 112 µM | Vmax (human sera): 4.35 pmol*min-1*mg sera-1 | Km (mouse sera): > 50 µM | Km (SaFrmB): > 50 µM | kcat/kuncat (SaGloB): 14.6 103

CCC(SC)C(=O)OCOc1ccc2c(c1)Oc1cc(OCOC(=O)C(CC)SC)ccc1C21OC(=O)c2ccccc21 (stereo not drawn) [9S]
Km (human sera): > 50 µM | Km (mouse sera): > 50 µM | Km (SaFrmB): > 50 µM | Km (SaGloB): > 50 µM

CCC(C)(C)C(=O)OCOc1ccc2c(c1)Oc1cc(OCOC(=O)C(C)(C)CC)ccc1C21OC(=O)c2ccccc21 [10C]
Km (human sera): > 50 µM | Km (mouse sera): > 50 µM | Km (SaFrmB): > 50 µM | Km (SaGloB): > 50 µM

COC(C)(C)C(=O)OCOc1ccc2c(c1)Oc1cc(OCOC(=O)C(C)(C)OC)ccc1C21OC(=O)c2ccccc21 [10O]
Km (human sera): 63.3 µM | Vmax (human sera): 1.46 pmol*min-1*mg sera-1 | Km (mouse sera): > 50 µM | kcat/kuncat (SaFrmB): 4.97 103 | Km (SaGloB): > 50 µM

O=C(CCc1ccccc1)OCOc1ccc2c(c1)Oc1cc(OCOC(=O)CCc3ccccc3)ccc1C21OC(=O)c2ccccc21 [11C]
Km (human sera): > 50 µM | Km (mouse sera): > 50 µM | Km (SaFrmB): > 50 µM | Km (SaGloB): > 50 µM

O=C(COc1ccccc1)OCOc1ccc2c(c1)Oc1cc(OCOC(=O)COc3ccccc3)ccc1C21OC(=O)c2ccccc21 [11O]
Km (human sera): > 50 µM | Km (mouse sera): > 50 µM | Km (SaFrmB): > 50 µM | Km (SaGloB): > 50 µM

O=C(CSc1ccccc1)OCOc1ccc2c(c1)Oc1cc(OCOC(=O)CSc3ccccc3)ccc1C21OC(=O)c2ccccc21 [11S]
Km (human sera): > 50 µM | Km (mouse sera): > 50 µM | Km (SaFrmB): > 50 µM | Km (SaGloB): > 50 µM

C=CCOC(C)C(=O)OCOc1ccc2c(c1)Oc1cc(OCOC(=O)C(C)OCC=C)ccc1C21OC(=O)c2ccccc21 (stereo not drawn) [12O]
Km (human sera): 42.2 µM | Vmax (human sera): 4.00 pmol*min-1*mg sera-1 | Km (mouse sera): > 50 µM | Km (SaFrmB): > 50 µM | kcat/kuncat (SaGloB): 1.28 103

C=CCSC(C)C(=O)OCOc1ccc2c(c1)Oc1cc(OCOC(=O)C(C)SCC=C)ccc1C21OC(=O)c2ccccc21 (stereo not drawn) [12S]
Km (human sera): > 50 µM | Km (mouse sera): > 50 µM | Km (SaFrmB): > 50 µM | Km (SaGloB): > 50 µM
